Measurements taken from ChEMBL document CHEMBL1147730, “3D-QSAR studies on cannabinoid CB1 receptor agonists: G-protein activation as biological data” (J Med Chem, 2006).

What was measured:
[1] = biological target: Cannabinoid receptor 1 (Rattus norvegicus) (UniProt P20272); test: (§1) […] [35S]GTP-gamma-S from rat cerebellar CB1 receptor; type: functional; details: Wistar
Cannabinoid receptor 1 = Cannabinoid receptor 1 (Rattus norvegicus, UniProt P20272); test: as §1; type: functional, Wistar
Cannabinoid receptor 1, sequence (P20272 whole entry): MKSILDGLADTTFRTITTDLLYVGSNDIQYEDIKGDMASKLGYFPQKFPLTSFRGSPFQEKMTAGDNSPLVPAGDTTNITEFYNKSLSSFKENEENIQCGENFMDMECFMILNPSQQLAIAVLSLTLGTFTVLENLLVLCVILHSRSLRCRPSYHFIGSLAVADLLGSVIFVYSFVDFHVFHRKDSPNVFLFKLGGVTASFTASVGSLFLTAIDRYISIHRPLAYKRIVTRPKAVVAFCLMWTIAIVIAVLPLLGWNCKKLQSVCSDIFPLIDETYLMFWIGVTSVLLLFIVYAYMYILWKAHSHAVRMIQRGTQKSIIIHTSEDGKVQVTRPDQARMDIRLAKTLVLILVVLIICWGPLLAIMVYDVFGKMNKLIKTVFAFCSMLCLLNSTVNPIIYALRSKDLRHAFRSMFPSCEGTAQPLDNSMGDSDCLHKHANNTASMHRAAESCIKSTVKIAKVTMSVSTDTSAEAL

Cannabinoid receptor 1 (Rattus norvegicus), sequence (P20272 whole entry): as above

## CCCCC/C=C\C/C=C\C/C=C\C/C=C\CCCCNC(=O)CCC
[1]
  Emax: 199%
Cannabinoid receptor 1
  EC50: 3.16 µM

## CCCCC/C=C\C/C=C\C/C=C\C/C=C\CCCNC(=O)CCC
[1]
  Emax: 210%
Cannabinoid receptor 1
  EC50: 1.26 µM

## CCCCC/C=C\C/C=C\C/C=C\C/C=C\CCCC(=O)NC1CC1
[1]
  Emax: 351%
Cannabinoid receptor 1
  EC50: 0.398 µM

## CCCCCc1cc(O)c2c(c1)OC(C)(C)[C@@H]1CC=C(C)C[C@@H]21 [DELTA-8-TETRAHYDROCANNABINOL]
[1]
  Emax: 184%

## CCCCC/C=C\C/C=C\C/C=C\C/C=C\CCCNC(=O)CC
[1]
  Emax: 260%
Cannabinoid receptor 1
  EC50: 2 µM

## CCCCC/C=C\C/C=C\C/C=C\C/C=C\CCCCOC(=O)[C@H](O)CO
[1]
  Emax: 255%

## CCCCC/C=C\C/C=C\C/C=C\C/C=C\CCCC(=O)NCCCl
[1]
  Emax: 326%
Cannabinoid receptor 1
  EC50: 0.316 µM

## CCCCCc1cc(O)c2c(c1)OC(C)(C)[C@@H]1CCC(C)=C[C@@H]21
[1]
  Emax: 159%

## CCCCC/C=C\C/C=C\C/C=C\C/C=C\CCCNC(=O)CCO
[1]
  Emax: 284%
Cannabinoid receptor 1
  EC50: 15.8 µM

## CCCCCCC(C)(C)c1ccc([C@@H]2C[C@H](O)CC[C@H]2CCCO)c(O)c1
[1]
  Emax: 443%

## CCCCC/C=C\C/C=C\C/C=C\C/C=C\CCCCNC(=O)CC
[1]
  Emax: 213%
Cannabinoid receptor 1
  EC50: 3.16 µM

## CCCCCCC(C)(C)/C=C\C/C=C\C/C=C\C/C=C\CCCOC(CO)CO
[1]
  Emax: 474%
Cannabinoid receptor 1
  EC50: 50.1 µM

## CCCCCCC(C)(C)c1cc(O)c2c(c1)OC(C)(C)[C@@H]1CC=C(CO)C[C@@H]21
[1]
  Emax: 396%
Cannabinoid receptor 1
  EC50: 0.00501 µM

## CCCCC/C=C\C/C=C\C/C=C\C/C=C\CCCC(=O)C(F)(F)F [ARACHIDONYL TRIFLUOROMETHYLKETONE]
[1]
  Emax: 161%
Cannabinoid receptor 1
  EC50: 25.1 µM

## CCCCCCC(C)(C)/C=C\C/C=C\C/C=C\C/C=C\CCCC(=O)OC(CO)CO
[1]
  Emax: 332%
Cannabinoid receptor 1
  EC50: 50.1 µM

## CC1=CC[C@@H]2[C@@H](C1)c1c(O)cc(C(C)(C)CCCCC#N)cc1OC2(C)C
[1]
  Emax: 369%
Cannabinoid receptor 1
  EC50: 0.01 µM

## CCCCCCC(C)(C)/C=C\C/C=C\C/C=C\C/C=C\CCCCOC(CO)CO
[1]
  Emax: 352%
Cannabinoid receptor 1
  EC50: 39.8 µM

## CCCCCc1cc(O)c2c(c1)OC(C)(C)c1ccc(C)cc1-2 [CANNABINOL]
[1]
  Emax: 131%
Cannabinoid receptor 1
  EC50: 0.316 µM

## CCCCC/C=C\C/C=C\C/C=C\C/C=C\CCCCNC(=O)CCO
[1]
  Emax: 286%
Cannabinoid receptor 1
  EC50: 7.94 µM

## CC1=CC[C@@H]2[C@@H](C1)c1c(O)cc(C(C)(C)CCCCBr)cc1OC2(C)C
[1]
  Emax: 400%
Cannabinoid receptor 1
  EC50: 0.01 µM

## CCCC(C)(C)c1ccc2c(c1)OC(C)(C)[C@@H]1CC=C(C)C[C@@H]21
[1]
  Emax: 158%
Cannabinoid receptor 1
  EC50: 2 µM

## CCCCCCC(C)(C)/C=C\C/C=C\C/C=C\C/C=C\CCC(=O)OC(CO)CO
[1]
  Emax: 382%
Cannabinoid receptor 1
  EC50: 50.1 µM
